What is called amount remaining is what is left of the initial amount, in per cent.

Ends that are not written are not given here. Peptide text beside a SMILES is read from it.

We go through two compounds from article PMC10441178, “Antibiofilm assay for antimicrobial peptides combating the sulfate‐reducing bacteria Desulfovibrio vulgaris” (MicrobiologyOpen, 2023).

Data set [1] deals with Desulfovibrio vulgaris biofilm. In kind it is cell-based, Desulfovibrio vulgaris DSM 644. The note with it: 6 h preincubation, then peptide (1 mg/mL to 1.95 µg/mL, twofold dilution), further 66 h, 37°C anaerobic; polished steel rivets; consistent for OD600 and OD570 (crystal violet); n = 3 per concentration. How it is done: D. vulgaris DSM 644 was cultivated in Postgate medium (DSMZ medium 63) with a modification of 0.004 g/L FeSO4 × 7H2O and 0.3 g/L trisodium citrate. The medium was flushed with nitrogen gas. Incubation was performed at 37°C without shaking. Steel […]660 4 × 15 mm (Würth-Gruppe) served as the growth surface. These were applied in the following pretreated stages: (1) mechanically untreated; (2) roughened: two turns with silicon carbide sandpaper with a grit size of 180; (3) polished: two turns with silicon carbide sandpaper with a sequential grit size of 320, 400, 600, 800, and 1200. The steel […] cleaned in acetone, 2-propanol, and ethanol (Carl Roth GmbH & Co. KG) for 5 min each using an ultrasonic bath, frequency 47 KHz (Branson Ultrasonic Corporation). […] Routine measurements of OD600 and OD570 were performed using the InfiniteM[…] plate reader (Tecan Group AG). For measurements in the anaerobic chamber, OD600 was measured with a Stratus microplate reader (Cerillo Inc.). […] Figure 2 Minimum biofilm inhibitory concentration (MBIC) assay for Desulfovibrio vulgaris: OD600 and OD570 of the challenge plate (72 h incubation) for different concentrations of four antimicrobial peptides: […]-33, Bactenecin, […]1 (black striped), and uninhibited sample (gray); mean and standard deviation were determined by propagation of error; asterisks indicate significant reduction (p = 0.005).

The test system of data set [2] is Desulfovibrio vulgaris biofilm. In kind it is cell-based, Desulfovibrio vulgaris DSM 644. Here is the method: D. vulgaris DSM 644 was cultivated in Postgate medium (DSMZ medium 63) with a modification of 0.004 g/L FeSO4 × 7H2O and 0.3 g/L trisodium citrate. The medium was flushed with nitrogen gas. Incubation was performed at 37°C without shaking. The preparation of the MBEC assay was similar to the MBIC. A measure of 120 μL of bacterial suspension was added per well as growth check (n = 8) or as AMP test (n = 6 per AMP concentration) and 120 μL of medium as sterile control (n = 8). The microtiter plate was incubated for 72 h. Afterward, the […] transferred to the challenge plate consisting of 120 μL of AMP solution (1 mg/mL to 1.95 μg/mL), 120 μL of medium for growth check (n = 8), 120 μL of medium (n = 4) or 120 μL of water (n = 2) or 120 μL of AMP with a concentration of 1 mg/mL (n = 2) for sterile control (in Figure A3, a pipetting scheme is shown). Incubation was performed for 24 h. The […] washed with 0.9% NaCl and half of them were stained with crystal violet (see MBIC). The other half was transferred to the recovery plate containing 120 μL of medium per well and placed in the ultrasonic bath for 30 min. The […] removed and the microtiter plate was incubated for 48 h. After the incubation period of 48 h, OD600 was measured. An overview of the individual steps of the MBIC/MBEC assay is shown in Figure 1.  Figure 5 Minimum biofilm eradication concentration (MBEC) assay for Desulfovibrio vulgaris: OD600 of the recovery plate (48 h incubation) and OD570 of the challenge plate (72 h incubation) for different concentrations of four antimicrobial peptides: […]-33, Bactenecin, […]1 (black striped), and uninhibited sample (gray); mean and standard deviation were determined by error propagation; asterisk indicates significant reduction (p = 0.005).

A short description of the next data set: in vitro. In kind it is in vitro ADME. The note with it: cells or culture medium. Here is the method:
Figure 4 Long-term stability for the peptide […]1 in Postgate C medium (black) and in the supernatant of a 7-day-old culture of Desulfovibrio vulgaris (gray), analyzed with reversed-phase high-performance liquid chromatography; 100% peptide content corresponds with the peptide content at 0 h. Values are shown as means with standard deviation, n = 3.

As for `CC[C@H](C)[C@H](NC(=O)[C@H](CCCNC(=N)N)NC(=O)[C@H](CS)NC(=O)[C@H](CC(C)C)NC(=O)[C@@H](N)CCCNC(=N)N)C(=O)N[C@H](C(=O)N[C@H](C(=O)N[C@H](C(=O)N[C@@H](CCCNC(=N)N)C(=O)N[C@H](C(=O)N[C@@H](CS)C(=O)N[C@@H](CCCNC(=N)N)C(=O)O)C(C)C)[C@@H](C)CC)C(C)C)C(C)C` [Bactenecin] (H-RLCRIVVIRVCR-OH; N-terminus and C-terminus assumed), the MBIC95% result in data set [1] was “no biofilm inhibitory effects”. Moreover, the “Lowest peptide concentration with complete removal of the biofilm (total biofilm mass, OD570)” value in data set [2] (72 h biofilm on steel rivets, challenge with peptide, crystal violet staining, OD570) stood at 500 µg/mL. Besides, the “Effect on OD600 of recovery plate below the MBEC95%” value in data set [2] (peptide concentrations 250 and 125 µg/mL) is on record as “partial effect”. Also, in data set [2] (peptide concentrations 250 and 125 µg/mL, crystal violet, OD570), the “Removal of total biofilm mass (OD570) at lower concentrations” value was “partial removal”.

Consider FFGKVLKLIRKIF [DASamP1], for which, in the data set “in vitro”, the amount remaining at 168 h came out at 70% and the share remaining at 504 h stood at 56%.
